Literature values, collected in patent US9821060B2, “Heat-sensitive nanoparticle system” (FONDAZIONE ISTITUTO ITALIANO DI TECNOLOGIA, priority 2013, dated 2017).

Conditions: in water

- half-life temperature at 10 hours: 57 °C
Compound: CC(C)(N=NC(C)(C)C(=O)NCCC(=O)O)C(=O)NCCC(=O)O.O [VA057, 2,2′Azobis-[N-(2-carboxyethyl)-2-methylpropionamide]hydrate]
